In patent US20180186742A1, “PICOLINAMIDES AS FUNGICIDES” (Dow AgroSciences LLC, priority 2017, published 2018):
Like-named read-outs stand apart in the source and are kept apart here.

Tests used:
Type in all cases: in vivo
Zymoseptoria tritici = experiment: Leaf blotch of wheat (SEPTTR), disease control on wheat seedlings; details: low volume application at 121.5 g/H
Outline: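 Yuma wheat seedlings with the first leaf fully emerged were sprayed to run-off with compound in acetone plus nine volumes of water containing 110 ppm Triton X-100; track-spray tests used EC formulations with 0.1% Trycol 5941. Z. tritici inoculation came before or after treatment, followed by 100% RH dew periods and a 20 °C greenhouse. Percent control was calculated from severity versus untreated plants.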

Puccinia triticina = experiment: Wheat brown rust (PUCCRT), disease control on wheat seedlings; details: low volume application at 121.5 g/H
Outline: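 Compounds in acetone, diluted with nine volumes of water containing 110 ppm Triton X-100, sprayed to run-off on first-leaf Yuma wheat seedlings; track-spray tests used EC formulations with 0.1% Trycol 5941. Puccinia triticina spores applied before or after treatment. Overnight dark dew room at 22° C, 100% humidity, then greenhouse at 24° C.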

Phakopsora pachyrhizi = experiment: Asian soybean rust (PHAKPA), disease control on soybean seedlings; details: High volume application at 25 ppm
Outline: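 Two-week-old Williams 82 soybean seedlings were sprayed to run-off with compound in acetone/water (1:9) containing 0.011% Tween 20. Inoculation was 3 days before (curative) or 1 day after (protectant) treatment, followed by 24 h dark dew at 22 °C, 100% RH, then 23 °C; disease severity scored on sprayed leaves.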

[1] = 24 h, 1 Day Protectant, read-out: SEPTTR disease control, 1DP, LV activity
[2] = 72 h, 3 Day Curative, read-out: SEPTTR disease control, 3DC, LV activity
[3] = 24 h, 1 Day Protectant, read-out: PUCCRT disease control, 1DP, LV activity
[4] = 72 h, 3 Day Curative, read-out: PUCCRT disease control, 3DC, LV activity
[5] = 24 h, 1 Day Protectant, read-out: PHAKPA 1DP disease control rating
[6] = 72 h, 3 Day Curative, read-out: PHAKPA 3DC disease control rating

SMILES | pest or weed control at 121.5 g/ha (Zymoseptoria tritici; [1]) [%] | pest or weed control at 121.5 g/ha (Zymoseptoria tritici; [2]) [%] | pest or weed control at 121.5 g/ha (Puccinia triticina; [3]) [%] | pest or weed control at 121.5 g/ha (Puccinia triticina; [4]) [%] | pest or weed control at 25 ppm (Phakopsora pachyrhizi; [5]) [%] | pest or weed control at 25 ppm (Phakopsora pachyrhizi; [6]) [%] | pest or weed control at 121.5 g/ha (Zymoseptoria tritici; 24 h, 1 Day Protectant, wheat leaf blotch, read-out: SEPTTR 1DP disease control, LV activity) [%] | pest or weed control at 121.5 g/ha (Zymoseptoria tritici; 72 h, 3 Day Curative, wheat leaf blotch, read-out: SEPTTR 3DC disease control, LV activity) [%] | pest or weed control at 121.5 g/ha (Puccinia triticina; 24 h, 1 Day Protectant, wheat brown rust, read-out: PUCCRT 1DP disease control, LV activity) [%] | pest or weed control at 121.5 g/ha (Puccinia triticina; 72 h, 3 Day Curative, wheat brown rust, read-out: PUCCRT 3DC disease control, LV activity) [%]
COc1cc(F)ccc1[C@H](C(C)C)[C@H](C)OC(=O)[C@H](C)NC(=O)c1nccc(OC)c1OCOC(C)=O [Compound 237] | < 80 | < 80 | > 80 | > 80 | > 80 | > 80 | – | – | – | –
COc1ccnc(C(=O)N[C@@H](C)C(=O)O[C@@H](C)[C@@H](c2ccc(F)cc2C)C(C)C)c1OC(C)=O [Compound 178] | < 0 | < 80 | > 80 | < 80 | < 0 | < 80 | – | – | – | –
COc1ccnc(C(=O)N[C@@H](C)C(=O)O[C@@H](C)[C@@H](c2ccc(C)cc2C)C2CCCCC2)c1OC(C)=O [Compound 202] | < 80 | < 80 | > 80 | < 0 | < 80 | < 0 | – | – | – | –
COc1ccnc(C(=O)N[C@@H](C)C(=O)O[C@@H](C)[C@H](c2ccccc2F)C(C)C)c1OC(C)=O [Compound 360] | < 80 | > 80 | > 80 | > 80 | > 80 | > 80 | – | – | – | –
CCC(C)[C@H](c1ccc(C)cc1C)[C@H](C)OC(=O)[C@H](C)NC(=O)c1nccc(OC)c1OC(C)=O (stereo partly drawn) [Compound 203] | < 80 | < 80 | < 80 | < 80 | > 80 | < 0 | – | – | – | –
COc1ccnc(C(=O)N[C@@H](C)C(=O)O[C@H](C)[C@H](c2ccc(F)cc2C)C2CCCC2)c1OC(C)=O [Compound 190] | < 0 | < 80 | < 0 | < 0 | < 80 | < 80 | – | – | – | –
COCCC(=O)Oc1c(OC)ccnc1C(=O)N[C@@H](C)C(=O)O[C@@H](C)[C@H](c1ccc(F)cc1OC)C1CCC1 [Compound 238] | < 80 | < 80 | < 80 | < 80 | < 80 | < 80 | – | – | – | –
COc1cc(F)ccc1[C@@H](C1CCC1)[C@H](C)OC(=O)[C@H](C)NC(=O)c1nccc(OC)c1OC(C)=O [Compound 226] | < 80 | < 80 | < 80 | < 80 | < 80 | < 0 | – | – | – | –
COc1ccnc(C(=O)N[C@@H](C)C(=O)O[C@@H](C)[C@H](c2ccccc2OC(C)C)C(C)C)c1OC(C)=O [Compound 376] | – | – | – | – | > 80 | < 80 | < 80 | < 80 | > 80 | < 80
COc1ccnc2c(=O)n([C@@H](C)C(=O)O[C@@H](C)[C@@H](c3ccc(C)cc3C)C3CCCCC3)c(=O)oc12 [Compound 210] | > 80 | < 80 | < 80 | < 0 | < 80 | < 80 | – | – | – | –
COc1ccnc(C(=O)N[C@@H](C)C(=O)O[C@@H](C)[C@@H](c2ccc(C)cc2C)C(C)C)c1OCOC(C)=O [Compound 204] | < 0 | < 80 | > 80 | < 80 | < 80 | < 0 | – | – | – | –
